Consider 26 compounds from patent US9758492B2, “IDO inhibitors” (Bristol-Myers Squibb Company, priority 2013, dated 2017).

SMILES strings stand for the structures.

Chain of IDO (P14902 whole entry): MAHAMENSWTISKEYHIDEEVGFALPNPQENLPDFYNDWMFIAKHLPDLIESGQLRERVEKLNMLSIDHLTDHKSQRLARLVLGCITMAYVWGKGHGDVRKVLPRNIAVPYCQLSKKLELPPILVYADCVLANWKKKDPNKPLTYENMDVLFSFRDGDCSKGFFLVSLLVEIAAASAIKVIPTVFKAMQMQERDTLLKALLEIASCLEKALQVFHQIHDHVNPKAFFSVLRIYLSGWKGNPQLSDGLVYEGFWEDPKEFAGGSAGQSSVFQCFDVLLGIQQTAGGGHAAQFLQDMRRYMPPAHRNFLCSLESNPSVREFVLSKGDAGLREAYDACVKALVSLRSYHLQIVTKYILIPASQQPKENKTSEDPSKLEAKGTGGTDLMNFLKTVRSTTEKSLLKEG

The assay concerns the target IDO (Homo sapiens, UniProt P14902). In words: LLE_IDO_ABS_DR (IDO assay).
For the compound `CC(C)CN(CCC(C)C(F)(F)F)c1ccc(-c2cc(F)ccc2C(=O)O)cc1NC(=O)Nc1ccccc1F` (centres unmarked) [Example 204, 5-fluoro-3′-(3-(2-fluorophenyl)ureido)-4′-(isobutyl(4,4,4-trifluoro-3-methylbutyl)amino)-[1,1′-biphenyl]-2-carboxylic acid], inhibition was half-maximal at 5.26 nM (IC50). In other words, the single-digit nanomolar range.
Take `Cc1ccc(NC(=O)Nc2cc(-c3ccccc3C(=O)O)ccc2N(CCC(C)C(F)(F)F)CC(C)C)cc1` (centres unmarked) [Example 205, 4′-(isobutyl (4,4,4-trifluoro-3-methylbutyl)amino)-3′-(3-(p-tolyl)ureido)-[1,1′-biphenyl]-2-carboxylic acid]: the IC50 (commonly the midpoint of a concentration-inhibition curve) came out at 20 nM. Compared with the last compound, the IC50 is about 3.8-fold higher.
The figure for `Cc1ccc(NC(=O)Nc2cc(-c3ccccc3C(=O)O)ccc2Nc2ccccc2C(C)(C)C)cc1` [Example 206, 4′((2-(tert-butyl)phenyl)amino)-3′-(3-(p-tolyl)ureido)-[1,1′-biphenyl]-2-carboxylic acid] is 600 nM; for `CN(c1ccc(-c2ccccc2-c2nnn[nH]2)cc1NC(=O)Nc1ccccc1F)c1ccccc1C(C)(C)C` [Example 207, 1-(4-((2-(tert-butyl)phenyl) (methyl)amino)-2′-(1H-tetrazol-5-yl)-[1,1′-biphenyl]-3-yl)-3-(2-fluorophenyl)urea] it is 130 nM.
The figure for `Cc1ccc(NC(=O)Nc2cc(-c3ccccc3-c3nnn[nH]3)ccc2Nc2ccccc2C(C)(C)C)cc1` [Example 208, 1-(4-((2-(tert-butyl)phenyl)amino)-2′-(1H-tetrazol-5-yl)-[1,1′-biphenyl]-3-yl)-3-(p-tolyl)urea] is 50 nM; for `COc1ccc(-c2ccc(N(C)c3ccccc3C(C)(C)C)c(NC(=O)Nc3ccccc3F)c2)cc1C(=O)O` [Example 209, 4′-((2-(tert-butyl)phenyl) (methyl)amino)-3′-(3-(2-fluorophenyl)ureido)-4-methoxy-[1,1′-biphenyl]-3-carboxylic acid] it is 560 nM.
The figure for `Cc1ccc(NC(=O)Nc2cc(-c3ccccc3-c3nnn[nH]3)ccc2N(C)c2ccccc2C(C)(C)C)cc1` [Example 210, 1-(4-((2-(tert-butyl)phenyl)(methyl)amino)-2′-(1H-tetrazol-5-yl)-[1,1′-biphenyl]-3-yl)-3-(p-tolyl)urea] is 210 nM; for `Cc1ccc(NC(=O)Nc2cc(-c3ccccc3C(=O)O)c(F)cc2N(CC(C)C)C2CCCCC2)cc1` [Example 225] it is 2.52 nM; for `CC(C)CN(c1cc(F)c(-c2cc(F)ccc2C(=O)O)cc1NC(=O)Nc1ccc(F)cc1F)C1CCCCC1` [Example 226, 4′-(cyclohexyl(isobutyl)ami-no)-5′-(3-(2,4-difluorophenyl)ureido)-2′,5-difluoro-[1,1′-biphenyl]-2-carboxylic acid] it is 2.67 nM.
For `Cc1ccc(NC(=O)Nc2cc(-c3ccccc3-c3nnn[nH]3)c(F)cc2N(CC(C)C)C2CCCCC2)cc1` [Example 227, 1-(4-(cyclohexyl(isobutyl)ami-no)-6-fluoro-2′-(1H-tetrazol-5-yl)biphenyl-3-yl)-3-p-tolylurea], the IC50 was found to be 2.91 nM. The IC50 values of the last two compounds are within 1.5-fold of each other.
The result for `CC(C)CN(c1cc(F)c(-c2ccccc2C(=O)O)cc1NC(=O)Nc1ccccc1F)C1CCCCC1` [Example 228, 4′-(cyclohexyl(isobutyl)amio-no)-2′-fluoro-5′-(3-(2-fluorophenyl)ureido) biphenyl-2-carboxylic acid] reads 1.74 nM.
The figure for `CC(C)CN(c1cc(F)c(-c2cc(F)ccc2C(=O)O)cc1NC(=O)Nc1ccccc1F)C1CCCCC1` [Example 229, 4′-(cyclohexyl(isobutyl)ami-no)-2′,5-difluoro-5′-(3-(2-fluorophenyl)ureido) biphenyl-2-carboxylic acid] is 2.56 nM; for `CC(C)CN(c1cc(F)c(-c2ccccc2C(=O)O)cc1NC(=O)Nc1ccc(F)cc1F)C1CCCCC1` [Example 230, 4′-(cyclohexyl(isobutyl)ami-no)-5′-(3-(2,4-difluorophenyl)ureido)-2′-fluorobiphenyl-2-carboxylic acid] it is 2.14 nM.
Compound `Cc1ccc(NC(=O)Nc2cc(-c3ccccc3C(=O)NS(C)(=O)=O)ccc2N(CC(C)C)CC(C)C)cc1` [Example 232, 4′-(Diisobutylamino)-N-(methylsulfonyl)-3′-(3-(p-tolyl)ureido)-[1,1′-biphenyl]-2-carboxamide] displayed an IC50 of 660 nM.
The result for `Cc1ccc(NC(=O)Nc2cc(-c3ccccc3C(=O)NS(=O)(=O)C(F)(F)F)ccc2N(CC(C)C)CC(C)C)cc1` [Example 234] reads 9370 nM; that for `Cc1ccc(NC(=O)Nc2cc(-c3ccccc3-c3nnn[nH]3)ccc2N2CC(C)CC(C)C2)cc1` (centres unmarked) [Example 235, 1-(4-(3,5-Dimethylpiperidin-1-yl)-2′-(1H-tetrazol-5-yl)-[1,1′-biphenyl]-3-yl)-3-(p-tolyl)urea], 790 nM.
The figure for `CC1CC(C)CN(c2ccc(-c3ccccc3-c3nnn[nH]3)cc2NC(=O)Nc2ccc(F)cc2)C1` (centres unmarked) [Example 236] is 2140 nM; for `CC1CC(C)CN(c2ccc(-c3ccccc3-c3nnn[nH]3)cc2NC(=O)Nc2ccccc2F)C1` (centres unmarked) [Example 237] it is 1290 nM.
Regarding `CC(C)CN(CC(C)C)c1ccc(-c2ccccc2-c2nnn[nH]2)cc1NC(=O)Nc1ccccn1` [Example 238, 1-(4-(Diisobutylamino)-2′-(1H-tetrazol-5-yl)-[1,1′-biphenyl]-3-yl)-3-(pyridin-2-yl)urea], the IC50 was 750 nM.
The result for `CC(C)CN(CC(C)C)c1ccc(-c2ccccc2-c2nnn[nH]2)cc1NC(=O)Nc1ncccn1` [Example 239, 1-(4-(Diisobutylamino)-2′-(1H-tetrazol-5-yl)-[1,1′-biphenyl]-3-yl)-3-(pyrimidin-2-yl)urea] reads 3860 nM; that for `CC(C)CN(CC(C)C)c1ccc(-c2ccccc2-c2nn[nH]n2)cc1NC(=O)NC(C)(C)Cc1ccc(F)cc1` [Example 240, 1-(4-(diisobutylamino)-2′-(2H-tetrazol-5-yl)-[1,1′-biphenyl]-3-yl)-3-(1-(4-fluorophenyl)-2-methylpropan-2-yl)urea], 2230 nM; that for `C#Cc1cccc(NC(=O)Nc2cc(-c3ccccc3-c3nnn[nH]3)ccc2N(CC(C)C)CC(C)C)c1` [Example 241, 1-(4-(diisobutylamino)-2′-(1H-tetrazol-5-yl)-[1,1′-biphenyl]-3-yl)-3-(3-ethynylphenyl)urea], 20 nM.
Consider `C#CCOc1cccc(NC(=O)Nc2cc(-c3ccccc3-c3nnn[nH]3)ccc2N(CC(C)C)CC(C)C)c1` [Example 242, 1-(4-(diisobutylamino)-2′-(1H-tetrazol-5-yl)-[1,1′-biphenyl]-3-yl)-3-(3-(prop-2-yn-1-yloxy)phenyl)urea], for which the midpoint of inhibition, the IC50, lay at 4.72 nM.
`CC(C)CN(CC(C)C)c1ccc(-c2ccccc2-c2nnn[nH]2)cc1NC(=O)Nc1c(F)cc(Cl)cc1F` [Example 243, 1-(4-chloro-2,6-difluorophenyl)-3-(4-(diisobutylamino)-2′-(1H-tetrazol-5-yl)-[1,1′-biphenyl]-3-yl)urea]: it took 0.76 nM to reach half-maximal inhibition (IC50).
Turning to `C#CCOc1ccc(NC(=O)Nc2cc(-c3ccccc3-c3nnn[nH]3)ccc2N(CC(C)C)CC(C)C)cc1` [Example 244], the IC50 amounted to 9.3 nM.
The result for `CC(C)CNC(=O)Nc1cc(-c2ccccc2-c2nnn[nH]2)ccc1N(CC(C)C)CC(C)C` [Example 245, 1-(4-(diisobutylamino)-2′-(1H-tetrazol-5-yl)-[1,1′-biphenyl]-3-yl)-3-isobutylurea] reads 180 nM.
